# Data as given in patent US9062095B2, “Mutant double cyclized receptor peptides inhibiting β1-adrenoceptor antibodies” (JULIUS-MAXIMILIANS-UNIVERSTITAT-WURZBURG, priority 2007, dated 2015).
# Positions of bridges follow the written chain, without caps; N, C: chain ends.
# Legend:
# [1] = tested on: anti-β1-ECII antibodies; assay: ELISA-competition assay: peptide preincubated with sera/IgG of immunized antibody-positive rats, linear 25AA Cys/Cys-peptide as antigen; format: binding, rat; settings: n=6 sera; incubation 12-14 h, 4° C.; mean ±SEM (FIG. 27)
# Description: FIG. 9 is a diagram composed of two major-(upper and lower) panels resuming the blocking effect of both 25AA- and 18AA-cyclopeptide mutants having a Gln closure site, as well as 18AA cyclopeptide mutants having a D-Glu closure site after preincubation (12 h, 4° C., rotating incubation) with sera isolated from 69 different immunized antibody-positive rats in an ELISA-competition assay using the 3 Cys-containing linear 25AA Cys/Cys-peptide as an antigen. The upper panel depicts rat sera preferentially reacting with the Cys/Ser mutated cyclopeptides (type1 reaction, n=64), separated in cyc25AA(Gln)-peptides (left) and cyc18AA(Gln and D-Glu)-peptides (right). The lower panel depicts the rat sera reacting with both the Cys/Ser and the Ser/Cys mutated cyclopeptides (type2 reaction, n=5), again separated in the results obtained with cyc25AA(Gln)-peptides (left) and cyc18AA(Gln and D-Glu)-peptides (right).
# FIG. 11 is a diagram resuming the dose-dependent (x-axis, abscissa: fold molar excess of specific peptides) blocking capacity of various linear and cyclic beta1-ECII-peptides given in % of the unblocked antibody-titer (y-axis, ordinate), including 25AA Cys/Cys linear peptides (black squares), 25AA Cys/Ser cyclopeptide mutants (white squares), 18AA Cys/Cys cyclo-peptides (black diamonds), 18AA Cys/Ser cyclopeptide mutants (white diamonds), and 18AA Cys/Ser linear peptide mutants (vertically hatched diamonds) in an ELISA competition assay performed with sera from n=6 randomly chosen immunized antibody-positive rats.
# FIGS. 27A and B depict the in vitro blocking (=neutralization) capacity of various cysteine-containing cyclopeptide variants of the second extracellular loop (ECII) of the human beta1-adrenergic receptor, determined by testing n=6 individual sera (27A) of immunized beta1-ECII-antibody-positive rats after over-night incubation with the indicated cyclopeptides (12-14 h, 4° C.) by ELISA. Columns in 27A represent the receptor-antibody blocking efficiency of the indicated cyclopeptides in % of the antibody-(ELISA-)signals obtained with unblocked antibody-positive rat sera. Columns in 27B represent the mean blocking efficiency for each cyclopeptide, error bars indicate ±SEM.
# The blocking capacity of β1-ECII-18AA cyclopeptide mutants (Cys13-Ser14 or Ser13-Cys14 mutation having an additional D-Glu-Gln exchange, e.g. at the ring closure site) was compared with the 3 Cys-containing 25AA or 18AA Cys/Cys cyclopeptides after preincubation (12 h, 4° C., rotating incubation over-night) of different numbers of sera from immunized antibody-positive rats in an ELISA-competition assay using the 3 Cys-containing linear 25AA Cys/Cys-peptide as an antigen. FIGS. 4, 5, and 7-10 show the results from measurements performed with sera of n=12 up to n=82 immunized antibody-positive rats using different cyclopeptides of the present invention.
# [2] = tested on: beta1-ECII receptor antibody-titers; assay: in vivo therapy study cyc22AA versus cyc18AA Cys/Ser in rats immunized over 8 months: antibody-titers; set-up: species or system rat; settings: injections every 4 weeks, start at month 8; mean ±SEM (FIG. 28A)
# From the text: FIGS. 28A and B depict the in vivo blocking (=neutralization) capacity of two cysteine-containing 18AA or 22AA cyclopeptide-mutants of the second extracellular loop (ECII) of the human beta1-adrenergic receptor upon therapeutic injection of the different constructs into rats regularly immunized since 8 months (first=basic immunization followed by 7 antigen-boosts every 4 weeks). The effects of four to five subsequent cyclopeptide-injections every 4 weeks are shown. FIG. 28A depicts the mean values±SEM of each of the treated groups of immunized beta1-ECII-antibody positive cardiomyopathic rats (animal number per group is given in the legend). […] The remaining receptor antibody-titers after each injection in % of the antibody-titers at start therapy (month 8) are depicted (columns). Error bars indicate ±SEM. Numbers in columns indicate the number of (subsequent) monthly injection.
# FIG. 28B depicts the time course of antibody-titers after 4 subsequent cyclopeptide-injections, determined before and 20-22 hours after application of the indicated constructs. Values are given in percent of increase or decrease in the respective antibody-titers after each cyclopeptide-injection compared with the antibody-titer determined at start of therapy (month 8). […]
# [3] = tested on: immunized beta1-ECII-antibody positive cardiomyopathic rats; assay: echocardiographic follow-up of the cyc22AA versus cyc18AA therapy study; format: in vivo, rat; settings: after 4 months of treatment, 1.0 mg/kg Bw (FIG. 29)
# From the text: FIG. 29A is a diagram showing the time course (month 0 to 12) of the internal end-systolic and end-diastolic left ventricular diameters (LVES, LVED) of GST/beta1-ECII-immunized untreated (black circles) versus GST/beta1-ECII-immunized animals treated with the indicated various cyclopeptides (see legend) as determined by 2D- and M-mode echocardiography (echocardiographic system: Visual Sonics, Vevo 770 (version V2.2.3), equipped with a 15-17.5 MHz transducer), whereby LVES/LVED is left ventricular end-systolic diameter/left ventricular end-diastolic diameter.
# FIG. 29B is a diagram depicting the time course (month 0 to 12) of the “Cardiac index” (CI) in ml/min/g (body weight) as determined by 2D- and Doppler-echocardiography (echocardiographic system see above).
# In addition, echocardiographic follow-up data after 4 months of treatment also show a superiority of cyc22AA mutants compared with the cyc18AA Cys/Ser mutant regarding their cardioprotective effects in vivo, as assessed by the decrease in both left ventricular end-diastolic (LVED) and end-systolic (LVES) diameters (FIG. 29A), and an increase in “Cardiac Index” (CI, given in ml/min/g body weight; see FIG. 29B), as determined by 2 dimensional- and Doppler-echocardiography using a Visual Sonics echocardiographic system (Vevo 770, version V2.2.3), equipped with a 17.5 MHz transducer).
substance,measurement,setting,value
Cyclo-Arg-Ala-Glu-Ser-Asp-Glu-Ala-Arg-Arg-Cys-Tyr-Asn-Asp-Pro-Lys-Cys-Ser-Asp-Phe-Val-Thr-Gly (cyclo(RAESDEARRCYNDPKCSDFVTG); disulfide 10-16 (inferred)) [cyc22AA Cys/Ser],blocking-efficiency versus unblocked sera,[1],74.9±5.0%
same,antibody-titer remaining after 4 injections in percent of the titer at start of therapy,[2],9.0±2.2%
same,"cardioprotective effects in vivo (decrease in LVED and LVES diameters, increase in Cardiac Index)",[3],superiority
